Laboratory results: a compilation of properties of binary mixtures (doi:10.1016/j.fluid.2015.06.043)

Assay: xn = mol fraction of the nth substance listed
Conditions: 101 kPa

CC[n+]1ccccc1.O=S(=O)([N-]S(=O)(=O)C(F)(F)F)C(F)(F)F + O
viscosity [mPa·s]
Conditions	283.15 K	293.15 K	298.15 K	303.15 K	313.15 K	333.15 K	343.15 K	353.15 K
x2 = 0.0043	78.6	49.9	40.1	33.3	24	13.7	10.88	–
x2 = 0.087	64.3	41.7	–	28.4	20.6	12.15	–	7.92

CC[n+]1ccccc1.O=S(=O)([O-])C(F)(F)F + O
viscosity [mPa·s]
Conditions	293.15 K	298.15 K	303.15 K	313.15 K	323.15 K	333.15 K	343.15 K	353.15 K
x1 = 0.067	–	–	1.9	1.5	1.22	1.02	–	–
x1 = 0.183	5.3	4.6	4.03	3.16	2.55	2.1	1.76	–
x1 = 0.498	17.7	–	13	9.96	7.86	6.34	5.24	4.41
x1 = 0.689	33.4	27.8	23.5	–	13.26	10.46	–	6.92
x1 = 0.893	65.7	53.2	43.7	30.8	22.5	17.1	13.4	–
x1 = 1	75.2	60.6	48.8	33.8	24.5	18.2	14.05	11.13

O + CC[n+]1ccccc1.O=S(=O)([O-])C(F)(F)F
x2 = 0
Conditions	viscosity [mPa·s]
298.15 K	0.89
303.15 K	0.8
313.15 K	0.65
333.15 K	0.47
343.15 K	0.4
